We go through 14 compounds from ChEMBL document CHEMBL1201862, “PubChem BioAssay data set” (2004).

Assay [1] addresses T1, fMet-Leu-Phe receptor (Homo sapiens, UniProt P21462).
T1 sequence (P21462 whole entry): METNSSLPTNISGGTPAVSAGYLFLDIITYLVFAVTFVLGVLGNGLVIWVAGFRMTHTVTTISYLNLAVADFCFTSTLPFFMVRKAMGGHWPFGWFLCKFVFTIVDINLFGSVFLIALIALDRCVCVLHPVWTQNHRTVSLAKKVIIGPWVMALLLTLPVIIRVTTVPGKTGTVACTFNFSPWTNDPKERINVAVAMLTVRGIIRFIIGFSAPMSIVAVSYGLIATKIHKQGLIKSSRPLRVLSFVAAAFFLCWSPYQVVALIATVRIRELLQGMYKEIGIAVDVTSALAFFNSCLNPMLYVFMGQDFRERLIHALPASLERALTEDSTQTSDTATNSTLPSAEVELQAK
Put plainly: formyl peptide receptor binders – dose response (AID 519). In kind it is functional.

Assay [2] concerns the target T2, Oxysterols receptor LXR-beta (Homo sapiens, UniProt P55055).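 Note: agonist activity at LXR measured by a cell-based luminescence readout across a dose range, run as a counterscreen for daf-12 agonists; HEK293 cells with Gal4-LXR fusion and GAL4-driven luciferase reporter; potency for activation of Gal4-LXR reporter so compounds are agonists.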
T2 sequence (P55055 whole entry): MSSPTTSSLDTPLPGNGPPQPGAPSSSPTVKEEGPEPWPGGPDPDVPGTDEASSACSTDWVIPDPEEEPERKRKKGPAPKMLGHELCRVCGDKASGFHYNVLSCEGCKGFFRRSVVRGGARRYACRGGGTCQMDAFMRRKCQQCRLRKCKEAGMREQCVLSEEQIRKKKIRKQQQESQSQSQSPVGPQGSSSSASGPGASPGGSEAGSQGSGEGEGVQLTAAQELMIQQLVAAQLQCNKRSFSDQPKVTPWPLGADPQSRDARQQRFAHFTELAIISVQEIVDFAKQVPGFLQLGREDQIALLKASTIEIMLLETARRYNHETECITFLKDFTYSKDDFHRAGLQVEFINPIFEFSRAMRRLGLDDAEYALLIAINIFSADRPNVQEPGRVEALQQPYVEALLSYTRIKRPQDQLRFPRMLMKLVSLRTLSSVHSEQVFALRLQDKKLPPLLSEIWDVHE
The format is functional, cell-based.

A short description of assay [3]: IGROV1 cell killing – plate reader, dry powder samples, PAX8 inhibitor project, dose response (AID 743043). In kind it is functional, cell-based. The settings on record: IGROV-1.
Assay [4] is described as follows: OVCAR-3 cell viability loss – plate reader, dry powder samples, PAX8 inhibitor project, dose response (AID 743044). The format is functional, cell-based.
Assay [5] can be described thus: OVCAR8 cell viability loss – plate reader, dry powder samples, PAX8 project, dose response (AID 743197). In kind it is functional, cell-based. The settings on record: OVCAR-8.
Assay [6] has as its target Paired box protein Pax-8 (Homo sapiens, UniProt Q06710). Description: PAX8 transcriptional activity inhibition in RMG-I – RMG-I cells, luciferase, cherry-pick, dose response (AID 687027).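 Note: luciferase reporter driven by Pax8 target thyroperoxidase promoter measured by SteadyGlo luminescence.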 The format is functional, cell-based.
Assay [7] addresses T3, 1-phosphatidylinositol 4,5-bisphosphate phosphodiesterase gamma-1 (Homo sapiens, UniProt P19174).
T3 sequence (P19174 whole entry): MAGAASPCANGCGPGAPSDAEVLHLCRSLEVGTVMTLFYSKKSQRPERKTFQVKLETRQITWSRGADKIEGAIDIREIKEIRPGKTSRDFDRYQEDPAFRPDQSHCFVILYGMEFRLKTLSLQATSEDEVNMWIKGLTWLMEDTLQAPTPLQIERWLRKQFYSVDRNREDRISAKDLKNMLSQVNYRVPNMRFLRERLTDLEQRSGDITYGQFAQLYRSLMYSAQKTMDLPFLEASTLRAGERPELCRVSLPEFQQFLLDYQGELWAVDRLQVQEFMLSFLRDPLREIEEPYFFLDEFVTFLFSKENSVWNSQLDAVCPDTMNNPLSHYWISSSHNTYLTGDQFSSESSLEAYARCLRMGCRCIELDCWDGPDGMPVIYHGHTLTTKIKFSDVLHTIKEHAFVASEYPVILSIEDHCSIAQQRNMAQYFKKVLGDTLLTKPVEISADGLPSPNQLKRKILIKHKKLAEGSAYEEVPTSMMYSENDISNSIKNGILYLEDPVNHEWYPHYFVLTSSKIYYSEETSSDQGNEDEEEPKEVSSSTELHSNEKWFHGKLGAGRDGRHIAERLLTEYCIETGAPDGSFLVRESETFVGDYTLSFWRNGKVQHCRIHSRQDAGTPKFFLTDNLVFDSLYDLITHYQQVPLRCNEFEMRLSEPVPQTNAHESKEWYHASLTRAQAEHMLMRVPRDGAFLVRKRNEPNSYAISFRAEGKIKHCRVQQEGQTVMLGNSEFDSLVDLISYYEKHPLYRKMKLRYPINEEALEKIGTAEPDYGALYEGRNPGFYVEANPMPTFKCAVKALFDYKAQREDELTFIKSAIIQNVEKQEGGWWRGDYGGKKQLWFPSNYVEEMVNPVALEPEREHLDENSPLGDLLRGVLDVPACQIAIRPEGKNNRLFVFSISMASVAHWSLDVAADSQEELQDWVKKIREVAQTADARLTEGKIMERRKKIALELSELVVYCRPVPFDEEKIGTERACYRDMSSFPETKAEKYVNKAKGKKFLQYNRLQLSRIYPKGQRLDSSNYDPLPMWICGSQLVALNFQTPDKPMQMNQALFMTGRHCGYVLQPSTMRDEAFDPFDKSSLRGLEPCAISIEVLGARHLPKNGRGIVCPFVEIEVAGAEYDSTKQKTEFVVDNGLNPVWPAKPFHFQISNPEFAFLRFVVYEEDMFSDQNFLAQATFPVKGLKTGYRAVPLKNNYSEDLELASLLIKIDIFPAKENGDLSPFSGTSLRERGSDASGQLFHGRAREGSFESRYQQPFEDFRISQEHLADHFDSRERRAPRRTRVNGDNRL
Description: Counterscreen for inhibitors of phospholipase C isozymes (PLC-B3): Fluorescence-based biochemical high throughput dose response assay to identify inhibitors of phospholipase C isozymes (PLC-gamma1).

Assay [8] has as its target T4, 1-phosphatidylinositol 4,5-bisphosphate phosphodiesterase beta-3 (Homo sapiens, UniProt Q01970).
T4 sequence (Q01970 whole entry): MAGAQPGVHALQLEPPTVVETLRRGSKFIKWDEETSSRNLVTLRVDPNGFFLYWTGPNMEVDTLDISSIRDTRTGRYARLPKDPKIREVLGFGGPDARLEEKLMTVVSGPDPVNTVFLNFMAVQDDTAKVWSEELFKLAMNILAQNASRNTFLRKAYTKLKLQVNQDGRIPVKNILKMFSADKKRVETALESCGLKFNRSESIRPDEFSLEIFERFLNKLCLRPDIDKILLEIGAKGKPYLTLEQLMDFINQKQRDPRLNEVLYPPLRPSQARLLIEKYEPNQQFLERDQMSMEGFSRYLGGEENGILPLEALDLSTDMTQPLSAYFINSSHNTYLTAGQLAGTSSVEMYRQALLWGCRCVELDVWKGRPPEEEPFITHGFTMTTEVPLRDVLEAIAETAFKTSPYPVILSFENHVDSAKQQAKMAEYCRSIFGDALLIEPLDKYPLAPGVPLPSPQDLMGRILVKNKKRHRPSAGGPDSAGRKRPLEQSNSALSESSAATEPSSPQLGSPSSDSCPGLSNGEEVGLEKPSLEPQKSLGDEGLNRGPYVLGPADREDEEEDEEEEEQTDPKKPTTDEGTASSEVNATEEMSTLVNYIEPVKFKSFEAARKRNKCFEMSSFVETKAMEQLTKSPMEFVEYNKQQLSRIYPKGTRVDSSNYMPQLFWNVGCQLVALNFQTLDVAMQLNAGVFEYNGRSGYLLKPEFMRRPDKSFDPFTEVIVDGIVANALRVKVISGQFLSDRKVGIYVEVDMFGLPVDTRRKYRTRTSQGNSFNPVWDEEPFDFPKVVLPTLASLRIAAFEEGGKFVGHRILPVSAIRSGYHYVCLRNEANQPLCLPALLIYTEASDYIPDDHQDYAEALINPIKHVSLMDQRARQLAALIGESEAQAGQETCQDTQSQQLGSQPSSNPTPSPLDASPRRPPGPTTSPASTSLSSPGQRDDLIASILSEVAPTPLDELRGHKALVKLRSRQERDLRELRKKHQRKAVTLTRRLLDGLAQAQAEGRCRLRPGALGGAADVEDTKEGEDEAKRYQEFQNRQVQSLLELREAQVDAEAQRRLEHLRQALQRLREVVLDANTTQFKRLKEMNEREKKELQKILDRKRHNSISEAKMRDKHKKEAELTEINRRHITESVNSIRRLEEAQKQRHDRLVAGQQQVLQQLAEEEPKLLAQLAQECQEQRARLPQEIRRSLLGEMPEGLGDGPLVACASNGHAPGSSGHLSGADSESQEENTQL
Description: Fluorescence-based biochemical high throughput dose response assay to identify inhibitors of phospholipase C isozymes (PLC-B3).

Assay [9] can be described thus: blockade of melanocortin 4 receptor signaling – cell-based, plate reader, cherry pick, counter-screen for LGR2 antagonist project, dose response (AID 743444).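 Note: transfected HEK 293 cells stimulated with alpha-MSH peptide; potency of inhibitors of the alpha-MSH evoked signal.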 In kind it is functional.
A short description of assay [10]: blockers of bursicon-stimulated LGR2 cAMP reporter – cell-based, HEK293, CRE-luciferase reporter, cherry pick, set 2, dose response (AID 743343).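 Note: transfected cells were stimulated with diluted bursicon conditioned medium after compound addition.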 In kind it is functional. (In general: In a reporter assay the amount or activity of a reporter protein is the signal.)
For assay [11], the target named is T5, Heat shock factor protein 1 (Mus musculus, UniProt P38532).
T5 sequence (P38532 whole entry): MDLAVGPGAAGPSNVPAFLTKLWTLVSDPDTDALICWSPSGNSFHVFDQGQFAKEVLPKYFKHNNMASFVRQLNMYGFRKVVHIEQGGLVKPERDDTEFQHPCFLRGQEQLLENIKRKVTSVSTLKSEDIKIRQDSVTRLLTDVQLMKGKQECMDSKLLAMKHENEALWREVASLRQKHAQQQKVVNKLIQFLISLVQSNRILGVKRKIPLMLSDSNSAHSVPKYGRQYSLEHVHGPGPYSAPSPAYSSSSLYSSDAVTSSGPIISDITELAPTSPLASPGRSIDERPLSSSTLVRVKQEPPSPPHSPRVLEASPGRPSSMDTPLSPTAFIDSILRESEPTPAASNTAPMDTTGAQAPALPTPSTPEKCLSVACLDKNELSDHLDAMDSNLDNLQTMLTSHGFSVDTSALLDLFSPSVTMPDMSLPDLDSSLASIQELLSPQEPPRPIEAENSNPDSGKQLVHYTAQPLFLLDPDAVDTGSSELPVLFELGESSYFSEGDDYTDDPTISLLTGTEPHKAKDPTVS
Description: decrease of HSF1-responsive luciferase luminescence – cell-based, NIH3T3, dose retest, confirmation (AID 2382).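 Note: NIH3T3 fibroblasts with HSF1-driven luciferase reporter stressed by proteasome inhibitor MG132; luminescence from HSF1-driven luciferase expression after 8 hours of MG132 stress.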 In kind it is functional.

In assay [12] the target is Genome polyprotein (dengue virus type 2, UniProt P29990). Put plainly: flavivirus cap methylation enzyme inhibition – biochemical, confirmation dose response, primary screen (AID 588689). The format is functional.
Genome polyprotein, sequence (P29990 2492-3391 limits assumed): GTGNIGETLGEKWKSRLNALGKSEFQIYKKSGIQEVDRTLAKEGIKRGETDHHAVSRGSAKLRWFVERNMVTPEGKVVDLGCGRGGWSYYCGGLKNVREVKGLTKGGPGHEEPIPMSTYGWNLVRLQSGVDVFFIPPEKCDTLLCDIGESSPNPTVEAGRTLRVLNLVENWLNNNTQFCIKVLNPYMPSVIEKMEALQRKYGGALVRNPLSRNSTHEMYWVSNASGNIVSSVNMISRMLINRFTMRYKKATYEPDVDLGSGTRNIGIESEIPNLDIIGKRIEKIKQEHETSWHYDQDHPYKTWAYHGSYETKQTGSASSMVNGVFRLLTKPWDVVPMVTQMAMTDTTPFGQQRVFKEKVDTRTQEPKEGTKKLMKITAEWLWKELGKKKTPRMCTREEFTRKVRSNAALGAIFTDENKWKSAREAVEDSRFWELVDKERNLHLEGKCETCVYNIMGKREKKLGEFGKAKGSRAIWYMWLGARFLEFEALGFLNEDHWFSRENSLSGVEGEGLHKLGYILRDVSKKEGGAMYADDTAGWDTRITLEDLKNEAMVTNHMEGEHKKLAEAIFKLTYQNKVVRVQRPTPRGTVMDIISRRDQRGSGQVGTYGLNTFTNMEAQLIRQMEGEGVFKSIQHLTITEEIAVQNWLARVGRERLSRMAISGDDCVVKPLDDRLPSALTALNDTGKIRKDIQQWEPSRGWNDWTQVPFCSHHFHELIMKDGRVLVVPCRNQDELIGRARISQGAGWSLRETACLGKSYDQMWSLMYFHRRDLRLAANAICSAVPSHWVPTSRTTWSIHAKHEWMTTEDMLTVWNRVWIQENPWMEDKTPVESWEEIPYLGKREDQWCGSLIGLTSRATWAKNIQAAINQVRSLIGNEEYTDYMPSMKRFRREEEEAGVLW

Calls of active or inactive are those of the source. A value given as a limit tells only on which side of the number the result lay.

Paired box protein Pax-8, sequence (Q06710 whole entry): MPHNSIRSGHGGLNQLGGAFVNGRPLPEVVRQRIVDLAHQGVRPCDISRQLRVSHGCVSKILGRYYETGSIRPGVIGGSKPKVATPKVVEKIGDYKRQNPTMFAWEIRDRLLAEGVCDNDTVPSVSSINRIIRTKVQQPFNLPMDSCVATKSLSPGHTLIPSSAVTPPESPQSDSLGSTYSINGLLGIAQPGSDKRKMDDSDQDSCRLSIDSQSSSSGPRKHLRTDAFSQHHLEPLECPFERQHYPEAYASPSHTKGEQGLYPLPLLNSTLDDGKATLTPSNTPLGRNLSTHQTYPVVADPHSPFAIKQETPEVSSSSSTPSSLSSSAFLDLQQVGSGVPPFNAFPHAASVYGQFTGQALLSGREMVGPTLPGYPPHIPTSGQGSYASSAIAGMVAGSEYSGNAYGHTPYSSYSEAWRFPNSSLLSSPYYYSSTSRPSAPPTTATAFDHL

As usually defined, the Ki is a dissociation constant, usually derived from enzyme kinetics or from competition with a known ligand. `CC1=C(C(=O)OC(C)C)[C@]2(C(=O)N(CC(N)=O)c3ccccc32)C(C#N)=C(N)O1`: the Ki in assay [1] was > 66.7 µM (inactive).
By EC50 is commonly meant the concentration giving half of the maximal effect. As for `Cc1nn(-c2nnc(NC3CCCCC3)nn2)c(C)c1Br`, in assay [2], the EC50 was > 67.6 µM (inactive).
The AC50 is the concentration giving half of the maximal activity seen. As to `C[C@@H]1CN([C@H](C)CO)C(=O)c2cc(NS(=O)(=O)c3ccc(Cl)cc3)ccc2O[C@@H](C)CCCCO[C@H]1CN(C)Cc1ccc2c(c1)OCO2`, the AC50 in [3] was 49.9 µM (active); in assay [4], 17.5 µM (active); in assay [5], 51.2 µM (active); in [6] it was 10.2 µM (active).
Broadly, the IC50 is the midpoint of a concentration-inhibition curve. In the case of `Cc1ccc(C23CC4CC(CC(C(=O)NCC(=O)O)(C4)C2)C3)cc1`, the IC50 in assay [7] and in assay [8] was > 122 µM (inactive) throughout.
In the case of `C[C@@H]1CCCCO[C@@H](CN(C)Cc2ccncc2)[C@H](C)CN([C@@H](C)CO)C(=O)c2cc(NC(=O)Nc3ccc(C(F)(F)F)cc3)ccc2O1`, the AC50 in assay [4] was 35.8 µM (active); in assay [5], > 70 µM (inactive); in assay [6], 5.52 µM (active).
As for `CC(C)(C)n1ncc2c(=O)n(CC(=O)OCc3ccccc3)cnc21`, the figures for the AC50 in [9] and in [10] were 2.3 µM (active) and 2.51 µM (active), respectively. Besides, the EC50 in assay [11] was 23.5 µM (active).
For the compound `C[C@@H]1CCCCO[C@@H](CN(C)Cc2ccc(C(F)(F)F)cc2)[C@H](C)CN([C@@H](C)CO)C(=O)c2cc(NC(=O)Cc3ccccc3)ccc2O1`, the AC50 is 25.7 µM (active) in [3], 19.8 µM (active) in assay [4], 33.3 µM (active) in [5] and 7.16 µM (active) in assay [6].
With `Fc1ccccc1CSc1ncnc2c1ncn2C1CCCCO1` (centres undefined), the EC50 in assay [2] was > 67.6 µM (inactive).
With `Cc1ccc(C(=N)NOC(=O)c2ccco2)cc1`, the EC50 in [2] is > 67.5 µM (inactive).
`CCOC(=O)c1cc(NC(=O)C2C3CCC(O3)C2C(=O)O)cc(C(=O)OCC)c1` (centres undefined): the Ki in [1] is > 66.7 µM (inactive).
On the same count and under the same terms, the figure for `COc1ccc(-c2cc(C(F)(F)F)nc(N3CCN(Cc4ccccc4)CC3)n2)cc1OC` is > 66.7 µM (inactive).
On to `COc1cc(Cl)cc(C(c2c(C(=O)O)[nH]c3ccccc23)c2c(C(=O)O)[nH]c3ccccc23)c1O`, for which the IC50 in assay [7] is 54 µM (inactive); in assay [12] it was 16.9 µM (active); in assay [8], > 122 µM (inactive).
Regarding `CSc1nc(N)c(C(=O)NC2CCCCC2)s1`, the IC50 in [7] and in assay [8] was > 123 µM (inactive) in each case.
Turning to `CCc1cccc(NC(=O)CN(c2ccc(OC)cc2)S(=O)(=O)c2c(C)n[nH]c2C)c1`, the IC50 in assay [7] and in assay [8] was > 123 µM (inactive) throughout.
